Reference: patent US10167296B2, “Sulfoximine substituted quinazolines for pharmaceutical compositions” (EVOTEC INTERNATIONAL GMBH, priority 2014, dated 2019)

Assays:
[1] = target: MNK1a (pre-activated GST-MNK1a) (Homo sapiens (Human), UniProt Q9BUB5); experiment: MNK1 in vitro kinase assay (assay 2), Z'-LYTE; type: biochemical; details: for inhibition at 1 µM: compound concentration of 1 μM, read-out: Mnk1 % Inh
Description: B. MNK1 In Vitro Kinase Assay (Assay 2)
MNK1 Data can be obtained from the MNK1 Z′-LYTE® assay. The MNK1 Z′-LYTE® screening protocol and assay conditions are also described on www.invitrogen.com.
The assay is described as follows:
The Z′-LYTE® biochemical assay employs a fluorescence-based, coupled-enzyme format and is based on the differential sensitivity of phosphorylated and non-phosphorylated peptides to proteolytic cleavage. The peptide substrate is labeled with two fluorophores—one at each end—that make up a FRET pair.
In the primary reaction, the kinase transfers the gamma-phosphate of ATP to a single tyrosine, serine or threonine residue in a synthetic FRET-peptide. In the secondary reaction, a site-specific protease recognizes and cleaves non-phosphorylated FRET-peptides. Phosphorylation of FRET-peptides suppresses cleavage by the Development Reagent. Cleavage disrupts FRET between the donor (i.e., coumarin) and acceptor (i.e., fluorescein) fluorophores on the FRET-peptide, whereas uncleaved, phosphorylated FRET-peptides maintain FRET. A ratiometric method, which calculates the ratio (the Emission Ratio) of donor emission to acceptor emission after excitation of the donor fluorophore at 400 nm, is used to quantitate reaction progress, as shown in the equation below. Emission Ratio=Coumarin Emission(445 nm)/Fluorescein Emission(520 nm)
The inhibition of kinase activity of MNK1a was assessed using pre-activated GST-MNK1a. The 2×MKNK1 (MNK1) mixture is prepared in 50 mM HEPES pH 7.5, 0.01% BRIJ-35, 10 mM MgCl2, 4 mM MnCl2, 1 mM EGTA, 2 mM DTT. The final 10 μL Kinase Reaction consists of 13.5-54 ng MKNK1 (MNK1) and 2 μM Ser/Thr 07 in 50 mM HEPES pH 7.5, 0.01% BRIJ-35, 10 mM MgCl2, 2 mM MnCl2, 1 mM EGTA, 1 mM DTT. After the 1 hour Kinase Reaction incubation, 5 μL of a 1:32768 dilution of Development Reagent A is added.
The Test Compounds are screened in 1% DMSO (final) in the well.
All Peptide/Kinase Mixtures are diluted to a 2×working concentration in the MNK1 Kinase Buffer.
All ATP Solutions are diluted to a 4×working concentration in Kinase Buffer (50 mM HEPES pH 7.5, 0.01% BRIJ-35, 10 mM MgCl2, 1 mM EGTA).
Development Reagent Solution:
The Development Reagent is diluted in Development Buffer
Bar-coded Corning, low volume NBS, 384-well plate (Corning Cat. #3676)
1. 2.5 μL—4×Test Compound
2. 5 μL—2×Peptide/Kinase Mixture
5. 60-minute Kinase Reaction incubation at room temperature
6. 5 μL—Development Reagent Solution
8. 60-minute Development Reaction incubation at room temperature
9. Read on fluorescence plate reader and analyze the data
The following equations are used for each set of data points:
Correction for Background Fluorescence: FISample−FITCFI Ctl Emission Ratio (using values corrected for background fluorescence):Coumarin Emission (445 nm)/Fluorescein Emission (520 nm)
% Phosphorylation (% Phos): 1−((Emission Ratio×F100%)−C100%)/((C0%−C100%)+[Emission Ratio×(F100%−F0%)])*100
% Inhibition: 1−(% PhosSample/% Phos0% Inhibition Ctl)*100 FI=Fluorescence Intensity C100%=Average Coumarin emission signal of the 100% Phos. Control C0%=Average Coumarin emission signal of the 0% Phos. Control F100%=Average Fluorescein emission signal of the 100% Phos. Control F0%=Average Fluorescein emission signal of the 0% Phos. Control
SelectScreen® Kinase Profiling Service uses XLfit from IDBS. The dose response curve is curve fit to model number 205 (sigmoidal dose-response model).

[2] = target: MNK2a (pre-activated GST-MNK2a) (Homo sapiens (Human), UniProt Q9HBH9); experiment: MNK2a in vitro kinase assay (assay 1), ADP-Glo; type: biochemical; details: read-out: Mnk2 IC50
MNK2a (pre-activated GST-MNK2a), sequence (Q9HBH9 whole entry): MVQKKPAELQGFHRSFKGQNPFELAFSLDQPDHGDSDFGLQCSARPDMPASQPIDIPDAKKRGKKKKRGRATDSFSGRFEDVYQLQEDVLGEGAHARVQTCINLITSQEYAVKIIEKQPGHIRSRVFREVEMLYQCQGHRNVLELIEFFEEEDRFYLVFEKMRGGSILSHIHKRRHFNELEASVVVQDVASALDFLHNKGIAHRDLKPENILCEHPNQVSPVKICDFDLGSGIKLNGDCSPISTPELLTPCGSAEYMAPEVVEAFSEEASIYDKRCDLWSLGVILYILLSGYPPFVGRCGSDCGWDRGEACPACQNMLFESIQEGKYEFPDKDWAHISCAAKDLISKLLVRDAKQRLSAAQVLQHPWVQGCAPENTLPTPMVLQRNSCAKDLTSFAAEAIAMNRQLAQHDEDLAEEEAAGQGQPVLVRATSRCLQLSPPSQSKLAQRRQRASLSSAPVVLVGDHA
Experimental: A. MNK2a In Vitro Kinase Assay (Assay 1)
The inhibition of kinase activity of MNK2a was assessed using pre-activated GST-MNK2a. The white, 384-well OptiPlate F plates were purchased from PerkinElmer. The ADP-Glo Kinase Assay (including ultra pure ATP) was purchased from Promega (V9103). Activated MNK2a was obtained as described in WO2011/104340. […] ID No. 5 of WO 2011/104340 by the C-terminal —CONH2 group, was purchased from Thermo Fisher Scientific. All other materials were of highest grade commercially available. Compounds are tested in either serial dilutions or single dose concentrations. The compound stock solutions are 10 mM in 100% DMSO The serial compound dilutions are prepared in 100% DMSO followed by 1:27.3 intermediate dilution in assay buffer. The final DMSO concentration in assay will be <3%.
In the 384-well plates 3 μl of test compound from the intermediate dilution is mixed with 4 μl of the activated MNK2 enzyme (final concentration of 10 nM) and 4 μl of the peptide (final concentration of 25 μM)/ultra pure ATP (final concentration of 20 μM), all dissolved in assay buffer. This step is followed by an incubation time of 90 min, then 10 μl of ADP Glo reagent are added, followed by 40 min of incubation. Then 20 μl of kinase detection reagent are admixed. The plates are sealed and after an incubation period of 30 min, the luminescence signal is measured in an Envision reader to determine the amount of produced ADP. All incubation steps are performed at room temperature.
The assay buffer consists of 20 mM HEPES, 2 mM DTT, 0.01% BSA, 20 mM MgCl2 and 0.1% Pluronic F-127.
The luminescent signal generated is proportional to the ADP concentration produced and is correlated with activated MNK2 activity. The analysis of the data is performed by the calculation of the percentage of ATP consumption of activated MNK2 in the presence of the test compound compared to the consumption of ATP in the presence of activated MNK2 without compound. (RLU(sample)−RLU(low control))*100/(RLU(high value)−RLU(low control))
[RLU=Relative Luminescence Units]
Values of more than 100% CTL are normally related to compound/sample specific physico-chemical properties (e.g. solubility, light absorbance, fluorescence).
IC50 values based on dose response curves are calculated with the AssayExplorer software.

MNK1a (pre-activated GST-MNK1a), sequence (Q9BUB5 other isoform, or with tags, fused parts or gaps): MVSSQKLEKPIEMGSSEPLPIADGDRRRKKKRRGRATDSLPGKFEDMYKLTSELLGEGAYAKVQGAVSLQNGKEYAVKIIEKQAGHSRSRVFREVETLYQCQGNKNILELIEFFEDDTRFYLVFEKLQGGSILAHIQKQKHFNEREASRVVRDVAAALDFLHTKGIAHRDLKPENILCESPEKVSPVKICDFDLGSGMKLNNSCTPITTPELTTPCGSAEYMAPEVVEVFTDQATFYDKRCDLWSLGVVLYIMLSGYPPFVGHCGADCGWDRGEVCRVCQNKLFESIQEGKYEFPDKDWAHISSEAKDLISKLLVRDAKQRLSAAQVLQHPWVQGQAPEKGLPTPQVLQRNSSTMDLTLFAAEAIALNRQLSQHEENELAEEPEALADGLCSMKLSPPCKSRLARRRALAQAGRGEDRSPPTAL

IC50 [1] [nM]	IC50 [2] [nM]	inhibition at 1 µM [1] [%]	Compound
74	1.5	–	COc1c(N=S2(=O)CCC2)cc2ncnc(Nc3ccc(F)cc3O[C@H](C)C(F)(F)F)c2c1C [Example 2.35]
–	6.9	77	Cc1c(O)c(N=S(C)(C)=O)cc2ncnc(Nc3ccc(F)cc3O[C@H](C)C(F)(F)F)c12 [Example 2.51]
17	1.7	–	COc1c(N=S(C)(C)=O)cc2ncnc(Nc3ccc(F)cc3O[C@@H]3CO[C@H]4[C@@H]3OC[C@H]4OC)c2c1C [Example 2.45]
44	2	–	COc1c(N=S(C)(C)=O)cc2ncnc(Nc3ccc(F)cc3O[C@H]3CCOC3)c2c1C [Example 2.50]
–	2.3	95	COc1c(N=S(C)(=O)C2CCOCC2)cc2ncnc(Nc3ccc(F)cc3O[C@@H]3CO[C@@H]4CCO[C@@H]43)c2c1C (stereo partly shown) [Example 2.12]
282	6.5	–	Cc1c(OC(C)C)c(N=S(C)(C)=O)cc2ncnc(Nc3ccc(F)cc3O[C@H](C)C(F)(F)F)c12 [Example 3.03]
65	4.1	–	Cc1c(OCCN2CCN(C)C(=O)C2)c(N=S(C)(C)=O)cc2ncnc(Nc3ccc(F)cc3O[C@H](C)C(F)(F)F)c12 [Example 2.32]
–	1.3	95	COc1c(N=S2(=O)CCC2)cc2ncnc(Nc3ccc(F)cc3O[C@@H]3CO[C@H]4[C@@H]3OC[C@H]4OC)c2c1Cl [Example 2.18]
54	1.6	–	CCOc1c(N=S(C)(C)=O)cc2ncnc(Nc3ccc(F)cc3O[C@H](C)C(F)(F)F)c2c1C [Example 1.03]
118	2.1	–	Cc1c(OC2CCOC2)c(N=S(C)(C)=O)cc2ncnc(Nc3ccc(F)cc3O[C@H](C)C(F)(F)F)c12 (stereo partly shown) [Example 3.04]
–	2.7	97	COc1c(N=S2(=O)CCCC2)cc2ncnc(Nc3ccc(Cl)cc3O[C@H](C)C(=O)NCC(F)(F)F)c2c1C [Example 2.56]
–	2.5	103	COc1c(N=S2(=O)CC(OC)C2)cc2ncnc(Nc3ccc(F)cc3O[C@H](C)C(=O)NCC(F)(F)F)c2c1C (stereo partly shown) [Example 2.01]
–	3.7	98	COc1c(N=S(C)(C)=O)cc2ncnc(Nc3ccc(F)cc3OC3CCOCC3)c2c1C [Example 2.14]
37	2	–	COc1c(N=S2(=O)CCCC2)cc2ncnc(Nc3ccc(F)cc3O[C@H]3COC[C@@H]3O)c2c1C [Example 2.46]
–	1.6	104	COc1c(N=S2(=O)CCCC2)cc2ncnc(Nc3ccc(F)cc3O[C@@H]3CO[C@H]4[C@@H]3OC[C@H]4OC)c2c1Cl [Example 2.55]
64	1	–	COc1c(N=S2(=O)CCC2)cc2ncnc(Nc3ccc(F)cc3O[C@@H]3CO[C@H]4[C@@H]3OC[C@@H]4F)c2c1C [Example 2.26]

IC50 [1] [nM]	IC50 [2] [nM]	inhibition at 1 µM [1] [%]	Compound
25	12.6	–	COc1c(N=S(C)(C)=O)cc2ncnc(Nc3ccc(F)cc3O[C@@H]3CO[C@H]4[C@@H]3OC[C@@H]4F)c2c1C [Example 2.02]
56	1.9	–	COc1c(N=S2(=O)CCC2)cc2ncnc(Nc3ccc(F)cc3O[C@H](C)C(=O)NCC(F)(F)F)c2c1C [Example 2.11]
–	1.3	105	COc1c(N=S2(=O)CCNCC2)cc2ncnc(Nc3ccc(F)cc3O[C@@H]3CO[C@@H]4CCO[C@@H]43)c2c1C [Example 2.30]
66	2.4	–	COc1c(N=S2(=O)CCC2)cc2ncnc(Nc3ccc(Cl)cc3O[C@H](C)C(=O)NCC(F)(F)F)c2c1C [Example 2.39]
22	1.1	–	COc1c(N=S2(=O)CCC2)cc2ncnc(Nc3ccc(F)cc3O[C@H]3CCOC3)c2c1C [Example 2.57]
14	1.8	–	COc1c(N=S2(=O)CCCC2)cc2ncnc(Nc3ccc(F)cc3O[C@@H]3CO[C@H]4[C@@H]3OC[C@H]4O)c2c1C [Example 2.09]
–	2.5	98	COc1c(N=S(C)(C)=O)cc2ncnc(Nc3ccc(F)cc3O[C@H]3CC[C@H](O)CC3)c2c1C [Example 2.22]
–	1.2	105	COc1c(N=S2(=O)CCC(O)CC2)cc2ncnc(Nc3ccc(F)cc3O[C@@H]3CO[C@@H]4CCO[C@@H]43)c2c1C (stereo partly shown) [Example 2.04]
–	4.1	88	COc1c(N=S(C)(C)=O)cc2ncnc(Nc3ccc(F)cc3O[C@H](C)C(=O)N[C@@H](C)C(F)(F)F)c2c1C [Example 2.37]
–	2.6	96	COc1c(N=S(C)(C)=O)cc2ncnc(Nc3ccc(Cl)cc3O[C@H](C)C(=O)NCC(F)(F)F)c2c1C [Example 2.29]
22	1.3	–	COc1c(N=S2(=O)CCCC2)cc2ncnc(Nc3ccc(F)cc3O[C@H]3CCOC3)c2c1C [Example 2.48]
–	2.8	102	COc1c(N=S(C)(=O)C(C)(C)C)cc2ncnc(Nc3ccc(F)cc3O[C@@H]3CO[C@@H]4CCO[C@@H]43)c2c1C (stereo partly shown) [Example 2.19]
–	2.5	106	COc1c(N=S2(=O)CCCC2)cc2ncnc(Nc3ccc(F)cc3O[C@H](C)C(=O)N[C@@H](C)C(F)(F)F)c2c1C [Example 2.05]
–	2.1	96	COc1c(N=S(C)(=O)C(C)C)cc2ncnc(Nc3ccc(F)cc3O[C@@H]3CO[C@@H]4CCO[C@@H]43)c2c1C (stereo partly shown) [Example 2.31]
–	2.3	95	COc1c(N=S(C)(C)=O)cc2ncnc(Nc3cccnc3O[C@@H]3CO[C@@H]4CCO[C@@H]43)c2c1C [Example 2.49]
–	1.7	103	COc1c(N=S(C)(C)=O)cc2ncnc(Nc3ccc(F)cc3O[C@@H]3CO[C@H]4[C@@H]3OC[C@H]4O)c2c1C [Example 2.13]
